Reference: patent US7563796B2, “Diphenylimidazopyrimidines as inhibitors of β-secretase” (Wyeth, priority 2005, dated 2009)
Where a name gives a salt, the structure may show the parent alone.

What was measured:
human BACE1 = human BACE1 (Homo sapiens, UniProt P56817); experiment: Fluorescent kinetic assay, BACE1 inhibition (substrate WABC-6 cleavage); type: biochemical; settings: for IC50: 10 nM enzyme, 25 μM substrate WABC-6, pH 4.5, room temperature; for inhibition at 25 µM: read-out: BACE1 % inhibition at 25 μM, at 25 μM inhibitor
Method: Evaluation of BACE-1 Binding Affinity of Test Compounds
1. Fluorescent Kinetic Assays
Dilution and mixing steps: total reaction volume: 100 μL
100 μM substrate dilution in 1X PBS was prepared, and
Fluorescence Readings: Readings at λex 320 nm and λem 420 nm are taken every 40 sec for 30 min at room temperature and the linear slope for substrate cleavage rate (vi) determined.

Chain of human BACE1 (P56817 46-501): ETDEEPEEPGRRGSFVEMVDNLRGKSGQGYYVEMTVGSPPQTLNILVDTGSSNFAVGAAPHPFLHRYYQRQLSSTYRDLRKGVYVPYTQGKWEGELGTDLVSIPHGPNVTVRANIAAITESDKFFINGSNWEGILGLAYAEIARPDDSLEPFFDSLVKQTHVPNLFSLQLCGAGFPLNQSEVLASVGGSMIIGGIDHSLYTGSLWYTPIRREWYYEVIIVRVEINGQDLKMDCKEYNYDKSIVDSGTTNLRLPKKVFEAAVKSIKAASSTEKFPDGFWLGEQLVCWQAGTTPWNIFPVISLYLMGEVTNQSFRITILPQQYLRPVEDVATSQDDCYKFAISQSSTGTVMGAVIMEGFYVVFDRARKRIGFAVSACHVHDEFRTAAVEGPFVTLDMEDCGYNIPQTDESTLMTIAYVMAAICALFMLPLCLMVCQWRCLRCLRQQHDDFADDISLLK

Structure (SMILES)	IC50 (human BACE1) [µM]	melting point [°C]	also measured
CCCc1cccc(C2(c3ccc(OC(F)(F)F)cc3)N=C(N)N3CCCN=C32)c1 (stereo not shown) [Example 14, 8-(3-Propyl-phenyl)-8-(4-trifluoromethoxy-phenyl)-2,3,4,8-tetrahydro-imidazo[1,5-a]pyrimidin-6-ylamine]	1.43	75 to 79	
C=CCc1cccc(C2(c3ccc(OC(F)(F)F)cc3)N=C(N)N3CCCN=C32)c1 (stereo not shown) [Example 13, 8-(3-Allylphenyl)-8-(4-trifluoromethoxyphenyl)-2,3,4,8-tetrahydro-imidazo[1,5-a]pyrimidin-6-ylamine]		89 to 111	inhibition at 5 µM (human BACE1; read-out: BACE1 % inhibition at 5 μM, at 5 μM inhibitor): 53%
CCC(=O)Nc1cccc(C2(c3ccc(OC(F)(F)F)cc3)N=C(N)N3CCCN=C32)c1 (stereo not shown) (as salt: hydrochloride) [Example 16, N-{3-[6-Amino-8-(4-trifluoromethoxy-phenyl)-2,3,4,8-tetrahydroimidazo[1,5-a]pyrimidin-8-yl]-phenyl}-propionamide hydrochloride]		148 to 150	
NC1=NC(c2ccccc2)(c2cccc(C(F)(F)F)c2)C2=NCCCN12 (stereo not shown) [Example 6, 8-Phenyl-8-[3-(trifluoromethyl)phenyl]-2,3,4,8-tetrahydroimidazo[1,5-a]pyrimidin-6-amine]			inhibition at 25 µM (human BACE1): 48%
NC1=NC(c2ccccc2)(c2cccc(Cc3ccc(F)cc3)c2)C2=NCCCN12 (stereo not shown) [Example 5, 8-[3-(4-Fluorobenzyl)phenyl]-8-phenyl-2,3,4,8-tetrahydroimidazo[1,5-a]pyrimidin-6-amine]	8.2	152	
CCCOc1cccc(C2(c3ccc(OC)c(C)c3)N=C(N)N3CCCN=C32)c1 (stereo not shown) [Example 9, 8-(4-Methoxy-3-methylphenyl)-8-(3-propoxyphenyl)-2,3,4,8-tetrahydroimidazo[1,5-a]pyrimidin-6-amine]	0.3		
COc1cccc(C2(c3ccccc3)N=C(N)N3CCCN=C32)c1 (stereo not shown) [Example 7, 8-(3-Methoxyphenyl)-8-phenyl-2,3,4,8-tetrahydroimidazo[1,5-a]pyrimidin-6-amine]			inhibition at 25 µM (human BACE1): 49%
CCCOc1cccc(C2(c3ccc(OC)c(C)c3)N=C(N)N3CCN=C32)c1 (stereo not shown) [Example 8, 7-(4-Methoxy-3-methylphenyl)-7-(3-propoxyphenyl)-2,7-dihydro-3H-imidazo[1.5-a]imidazol-5-amine]	0.4		
NC1=NC(c2ccc(OC(F)(F)F)cc2)(c2cccc(CCC3CC3)c2)C2=NCCCN12 (stereo not shown) [Example 12, 8-[3-(2-Cyclopropyl-ethyl)-phenyl]-8-(4-trifluoromethoxy-phenyl)-2,3,4,8-tetrahydro-imidazo[1,5-a]pyrimidin-6-ylamine]	0.21	65 to 77	
CCNC(=O)c1cccc(C2(c3ccc(OC(F)(F)F)cc3)N=C(N)N3CCCN=C32)c1 (stereo not shown) [Example 15, 3-[6-Amino-8-(4-trifluoromethoxy-phenyl)-2,3,4,8-tetrahydroimidazo[1,5-a]pyrimidin-8-yl]-N-ethyl-benzamide]		129 to 136	inhibition at 0.5 µM (human BACE1; read-out: BACE1 % inhibition at 0.5 μM, at 0.5 μM inhibitor): 40%
CCCOc1cccc(C2(c3ccc(OC)c(C)c3)N=C(N)N3CC(C)(C)CN=C32)c1 (stereo not shown) [Example 10, 8-(4-Methoxy-3-methylphenyl)-3,3-dimethyl-8-(3-propoxyphenyl)-2,3,4,8-tetrahydroimidazo[1,5-a]pyrimidin-6-amine]	1.1		
NC1=NC(c2ccccc2)(c2cccc(Oc3ccc(F)cc3)c2)C2=NCCCN12 (stereo not shown) [Example 3, 8-[3-(4-Fluorophenoxy)phenyl]-8-phenyl-2,3,4,8-tetrahydroimidazo[1,5-a]pyrimidin-6-amine]	4.7	165	
NC1=NC(c2ccccc2)(c2cccc(Cc3ccccc3)c2)C2=NCCCN12 (stereo not shown) [Example 2, 8-(3-Benzylphenyl)-8-phenyl-2,3,4,8-tetrahydroimidazol[1,5-a]pyrimidin-6-amine]	5.3	80	
COc1ccc(Cc2cccc(C3(c4ccccc4)N=C(N)N4CCCN=C43)c2)cc1 (stereo not shown) [Example 4, 8-[3-(4-Methoxybenzyl)phenyl]-8-phenyl-2,3,4,8-tetrahydroimidazo[1,5-a]pyrimidin-6-amine]	7.1	132	
CCC(=O)Nc1cccc(C2(c3ccc(OC(F)(F)F)cc3)N=C(N)N3CCCN=C32)c1 (stereo not shown) [Example 16, N-{3-[6-Amino-8-(4-trifluoromethoxy-phenyl)-2,3,4,8-tetrahydroimidazo[1,5-a]pyrimidin-8-yl]-phenyl}-propionamide hydrochloride]			inhibition at […] (human BACE1; read-out: BACE1 % inhibition at […], at 2.5 μM inhibitor): 43%
CC(C)(C)c1ccc(C2(c3ccccc3)N=C(N)N3CCCN=C32)cc1 (stereo not shown) [Example 1, 8-(4-tert-Butylphenyl)-8-phenyl-2,3,4,8-tetrahydroimidazol[1,5-a]pyrimidin-6-amine]	30	139	
